Where two headings read alike, the source gives them in different places.
Experiments:
[1] = mouse, in vivo; for AUC / MRT / tmax / t½: 10 mg/kg
PDGF [2] = target: T1, PDGF (Homo sapiens, UniProt P01127); conditions: iv
[3] = Animal models for glomerulonephritis, restenosis, cancer and pulmonary hypertension; assay type: in vivo
[4] = in vivo, iv
[5] = system: PDGF-induced 3T3 cell proliferation; assay: PDGF-induced 3T3 cell proliferation; assay type: cell-based; conditions: compared with anti-PDGF antibody (Upstate/Cell Signaling Solutions)
PDGF [6] = target: T1, PDGF; assay: Cellular IC50 of anti-PDGF aptamer; assay type: cell-based
PDGF AB and BB = assay: PDGF binding (Kd); parameters: species or system human
[7] = rabbit, in vivo
Experimental: Studies were performed in the Dutch-belted rabbit model using […]. Aptamers were administered at a dose level of 1.0 mg/eye, bilaterally via […] intravitreal injection. Samples from the aqueous humor, vitreous humor and plasma were taken before administration of the aptamer and a 0.25 h, 6 h, 24 h, 72 h, 7d, […], and 21d. FIGS. 22A, 22B and 22C show the vitreous humor and/or plasma concentration of each aptamer through 25 days post administration.
The results shown in FIG. 22A were obtained using noncompartmental (NCA) analysis. The volume of rabbit vitreous humor was approximately 1.0-1.5 ml.

[8] = system: retinal pigmented epithelial (RPE) cells; assay: RPE cell migration with PDGF; assay type: cell-based; conditions: 100 ng/ml PDGF
Description: The graphs presented in FIG. 15E and 15F show the increasing effect of PDGF concentration on RPE cell migration.

PDGF AA isoform = PDGF AA isoform (Homo sapiens, UniProt P04085); assay: PDGF AA isoform binding; conditions: FIG. 13A
rat PDGF = rat PDGF (Rattus norvegicus, UniProt Q05028); assay: Rat PDGF binding; conditions: FIG. 14A
[9] = rabbit, in vivo; remark: listed apart in the source

PDGF AB and BB, sequence (P01127 82-190 limits assumed): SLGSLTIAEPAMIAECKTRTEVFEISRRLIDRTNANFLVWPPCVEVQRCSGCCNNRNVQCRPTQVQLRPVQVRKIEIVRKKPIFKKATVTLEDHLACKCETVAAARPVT
T1 sequence (P01127 82-190 limits assumed): as above
rat PDGF, sequence (Q05028 74-182 limits assumed): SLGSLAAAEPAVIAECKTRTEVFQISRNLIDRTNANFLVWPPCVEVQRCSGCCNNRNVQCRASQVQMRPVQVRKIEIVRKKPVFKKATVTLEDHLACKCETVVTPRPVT

5′-[PEG40K]-NH2-dCdAdGdGdCfUdAfCmG-PEG-dCdGTdAmGdAmGdCdAfUfCmA-PEG-TdGdATfCfCfUmG-3T-3′ [ARC127]
bioavailability ([1]; ip): 62.5%
AUC ([1]; ip): 143.6055 µM·h
MRT ([1]; ip): 11.23 h
tmax ([1]; ip): 8 h
t½ ([1]; ip): 7.86 h
AUC ([1]; iv): 229.6868 µM·h
MRT ([1]; iv): 6.57 h
tmax ([1]; iv): 2 h
t½ ([1]; iv): 8.60 h
bioavailability ([1]; sc): 24.0%
AUC ([1]; sc): 55.0309 µM·h
MRT ([1]; sc): 16.63 h
tmax ([1]; sc): 8 h
t½ ([1]; sc): 9.18 h
duration of measurable activity in vivo (PDGF [2]): 48 h
efficacy in animal models [3]: efficacy in the animal models for glomerulonephritis, restenosis, cancer and pulmonary hypertension
systemic half life [4]: 6 to 12 h
ability to block PDGF-induced 3T3 cell proliferation [5]: comparable to the ability of an anti-PDGF antibody
IC50 (PDGF [6]): 2000 pM
recognition of BB and AB isoforms of PDGF (PDGF AB and BB; FIGS. 13A and 13B): recognizes the BB and AB isoforms of PDGF
Kd (PDGF AB and BB; anti-PDGF aptamer, isoform not stated, read-out: dissociation constant (Kd)): 100 pM
Kd (PDGF AB and BB; read-out: Kd, PDGF AB and BB): 100 pM
Cl [7]: 0.29 mL?d^−1
Cmax [7]: ~100 µM
Vss [7]: 1.42 mL
half life in the vitreous humor [7]: 84 h
t1/2 [7]: 92.9 h
tmax [7]: 0.25 h
blocking of RPE cell migration [8]: specifically blocks migration of retinal pigmented epithelial (RPE) cells
recognition of AA isoform of PDGF (PDGF AA isoform): not the AA isoform alone
affinity for human and rat PDGFs (rat PDGF): equivalent affinity
half life (intravitreal) [9]: 92.9 h
